According to paper PMC11468294, “Peptide Amphiphiles as Biodegradable Adjuvants for Efficient Retroviral Gene Delivery” (Advanced Healthcare Materials, 2023):
Entries after “also recorded” stand apart in the source; their conditions may differ. Where a SMILES comes first, the peptide text is derived from it. Where no end group is shown, it is not given here. The star is where a group is joined. Palmitoyl = CCCCCCCCCCCCCCCC(=O)*; Nonanoyl = CCCCCCCCC(=O)*

How the values were obtained:
HeLa cells = format: in vitro ADME; details: HeLa cells; for degradability by cells (in words): 2 µg peptide added to 20,000 cells, d0 (30 min) vs d3, degradable if number and size of aggregates are reduced after 3 days; for degradability (percentual degradation by aggregate number): 2 µg peptide (10 µg mL-1) added to 20,000 cells, 37°C, aggregates > 10 µm2 in 1008 µm × 1008 µm at d3 (72 h) vs d0 (30 min), Proteostat, confocal, three technical replicates
Method: Confocal laser scanning microscopy and degradation study with PA library and HeLa cells: Confocal laser scanning microscopy studies were performed for the visualization of the cell‐PA interaction. HeLa cells were seeded one day prior to conducting the assay (20000/well) in an 8‐well IBIDI slide. 2 µL of the preformed peptide fibrils (1 mg mL^−1) were diluted with 2 µL Proteostat (Enzo Life Science, 1 µL stock in 99 µL PBS) and incubated for 10 min and further diluted with medium to receive a final peptide concentration of 10 µg mL^−1. The nucleus of the HeLa cells was stained with Hoechst 33 342 (NucBlue, Thermo Fisher Scientific). The peptide solution mixture was transferred to the HeLa cells and incubated for 30 min at 37°C before washing three times with PBS. The interaction of fibril clusters with cells was monitored after 30 min incubation time on a Stellaris 8 confocal laser scanning microscope (Leica) equipped with a 20x air objective and laser excitation wavelengths of 405 nm (Hoechst), and 561 nm (Proteostat). For the evaluation of aggregate degradation, the samples were further incubated at 37°C for 3 d and analyzed without any additional washing step. The evaluation of aggregate size and number was conducted by analyzing Proteostat stained aggregates via the 3D objects counter function of ImageJ 1.53f51 for 3 individual measurements (area 1008 µm × 1008 µm). […] The number of aggregates were determined by counting aggregates larger than the threshold 10 µm^2 in an area of 1008 µm × 1008 µm and repeated in three technical triplicates.
(§1) 7 Effects of PA modifications on properties and activity
(§2) To investigate the effects of modification in the PA sequence, we created various peptide amphiphiles derived from PA1 by varying the (I) hydrophobic moiety, (II) the linkage chemistry and (III) the peptide sequence (Figure S12, SI chapter 7.1 – 7.3). The color code for sequence representation is yellow for the hydrophobic moiety, blue for cationic amino acids, red for non-polar amino acids, purple for polar uncharged amino acids, and green for anionic amino acids. To be concise, only the summarized information will be discussed, all original data for the peptides are summarized in the (Figure S26 - […]
(§3) Figure S12 Summarized overview of peptide amphiphile library in which systematic variations the original sequence […]
(§4) chemistry and (III) the peptide sequence on infectivity enhancement and degradability (see SI chapter 7.1 – 7.3).
(§5) In the following section a compound is considered infectivity enhancing if n-fold infectivity at 1.3 µM is larger than 2. A compound is considered to form µm-sized aggregates if visible particles were observed in widefield microscopy (brightfield or ThT-staining filter, objective 10x) or confocal […]
(§6) than 1000 kcps in Zeta-Potential measurements.
(§7) For the degradability only the PAs which could be stained with Proteostat (Figure S26) and were visible in microscopy (Figure S15, Figure S18, Figure S21, and Figure S22) were studied in detail. To determine […]
whether a PA is degraded or not, Proteostat stained PAs which are added to Hela cells (2 µg peptide added to 20.000 cells) and studied via confocal laser scanning microscopy. Microscopy is conducted at day 0 (d0, after 30 min of incubation) and at day 3 (d3, after 72 h of incubation). The number of aggregates >10 µm2 is counted via 3D object counter in ImageJ in an area of 1008 µm × 1008 µm.
A PA is considered as degradable if the number and the size of aggregates are reduced after 3 days.
The efficiency is determined by the percentual degradation (aggregate number at d3 / aggregate number at d0). Three technical replicates were evaluated for each sample. A large deviation in number and size of aggregates represents a nonhomogeneous distribution and polymorphism of aggregates.

[1] = Microscopic aggregation (fluorescence / confocal microscopy, derived count rate); format: physicochemical; details: fibrils preformed at 1 mg mL-1 in PBS; ThT or Proteostat stain, widefield or confocal microscopy; derived count rate > 1000 kcps as criterion
Method: Transmission electron microscopy (TEM) measurements, Thioflavin (ThT), zeta‐potential measurements for fibril characterization, ATR‐IR spectra acquisition and the calculation of β−sheet were prepared and conducted analogous to a previous report.^[ [20], [86] ^] […] Fibrils were defined as distinct, if no visible structures could be identified in fluorescence and brightfield microscopy. […] The derived count rate of the zeta‐potential measurement was used as information on the light scattering intensity and turbidity of the sample as a further indicator for microscopic aggregation.^[ [90] ^]
Fluorescence microscopy: 1 µL Fibrils (1 mg mL^−1) were stained with 9 µL, 50 µM ThT. 10 µL of the stained fibrils (0.1 mg mL^−1) were placed on a microscopy glass. Fluorescence microscopy measurements were performed on a Leica DMi8 microscope with 10x air objective and equipped with a Leica MC170 HD camera with a filter setting λem = 527/30 nm upon excitation at λex = 480/40 nm) and processed with the Leica LASX software.
as §1, §2, §3, §4, §5, §6, §7
whether a PA is degraded or not, Proteostat stained PAs which are added to Hela cells (2 µg peptide added to 20.000 cells) and studied via confocal laser scanning microscopy. […]
In the following, we will distinguish between three aggregation types for fibrillar structures: Fibrils which were not aggregating (below resolution limit of the microscope, approx. 650 nm), moderately aggregating (< 50 µm2) and aggregating to large particles (> 50 µm 2).
7.1 Effects of hydrophobic moiety exchange on properties and activity
To investigate the effects of varying hydrophobic moieties on assembly, aggregation and activity , we

[2] = system: HIV-1 infection of TZM-bl cells; assay: HIV-1 infection assay (β-galactosidase luminescence reporter); format: cell-based; details: infectivity enhancing if n-fold at 1.3 µM larger than 2
Method: HIV‐1 Infection Assay: The effect of peptide fibrils on HIV‐1 infection was studied via a luminescence assay for β‐galactosidase, which was reported by TZM‐bl cells upon infection. 10000 TZM‐bl cells were seeded in 180 µl supplemented DMEM one day prior infection. The cells were inoculated with 20 µl PNF solution 1:1 (v/v) mixed with virus (1:500 dilution) after an incubation time of 10 min. The HIV‐1 infection assay was conducted in three technical replicates and repeated in three independent experiments unless stated otherwise. The assay was conducted as described before.^[ [20] ^]

In the case of `CCCCCCCCCCCCCCCC(=O)N[C@H](C(=O)N[C@H](C(=O)N[C@@H](C)C(=O)N[C@@H](C)C(=O)N[C@@H](Cc1c[nH]cn1)C(=O)N[C@@H](Cc1c[nH]cn1)C(=O)N[C@@H](Cc1c[nH]cn1)C(N)=O)C(C)C)C(C)C` [C16-VVAAHHH-NH2] (Palmitoyl-VVAAHHH-NH2), the “degradability by cells (in words)” value (HeLa cells) is reported as “increase in size, decrease in number” and the “formation of µm-sized aggregates (in words)” value (shortened to “formation”) [1] is reported as “very large aggregates”.
In the case of `CCCCCCCCCCCCCCCC(=O)N[C@@H](CCCCN)C(=O)N[C@H](C(=O)N[C@H](C(=O)N[C@@H](CO)C(=O)N[C@@H](Cc1ccccc1)C(=O)N[C@@H](CCCCN)C(N)=O)[C@@H](C)CC)[C@@H](C)CC` [C16-KIISFK-NH2] (Palmitoyl-KIISFK-NH2), the “degradability by cells (in words)” value (HeLa cells) is reported as “degraded incompletely” and the “formation” value [1] is reported as “very large aggregates”.
With `CCCCCCCCCCCCCCCC(=O)N[C@@H](C)C(=O)N[C@@H](CC(C)C)C(=O)N[C@@H](C)C(=O)N[C@@H](C)C(=O)NCC(=O)N[C@@H](CCCCN)C(=O)N[C@@H](CCCCN)C(N)=O` [C16-ALAAGKK-NH2] (Palmitoyl-ALAAGKK-NH2) the “degradability (percentual degradation by aggregate number)” value (HeLa cells) was 87%.
In the case of `CCCCCCCCCCCCCCCC(=O)N[C@@H](C)C(=O)N[C@@H](CCCCN)C(=O)N[C@@H](C)C(=O)N[C@H](C(=O)NCC(=O)N[C@@H](CCCCN)C(N)=O)C(C)C` [C16-AKAVGK-NH2] (Palmitoyl-AKAVGK-NH2), the “degradability (percentual degradation by aggregate number)” value (HeLa cells) is reported as 89%.
For `CCCCCCCCC(=O)N[C@H](C(=O)N[C@H](C(=O)N[C@H](C(=O)N[C@@H](C)C(=O)N[C@@H](C)C(=O)N[C@@H](C)C(=O)N[C@@H](CCCCN)C(=O)N[C@@H](CCCCN)C(=O)N[C@@H](CCCCN)C(N)=O)C(C)C)C(C)C)C(C)C` [C9] (Nonanoyl-VVVAAAKKK-NH2), the “degradability by cells (in words)” value (HeLa cells) was “reduced in number of aggregates, but increases in size”.
For `CCCCCCCCCCCCCCCC(=O)NCC(=O)N[C@@H](CCCCN)C(=O)N[C@H](C(=O)NCC(=O)N[C@@H](CO)C(=O)N[C@@H](CCCCN)C(N)=O)C(C)C` [C16-GKVGSK-NH2] (Palmitoyl-GKVGSK-NH2), the “formation” value [1] was “cannot form µm‐sized aggregates” and the “infectivity enhancement of HIV-1 (in words)” value [2] was “Inactive”.
With `CCCCCCCCCCCCCCCC(=O)N[C@@H](CCCCN)C(=O)N[C@@H](Cc1ccc(O)cc1)C(=O)N[C@H](C(=O)N[C@@H](Cc1c[nH]cn1)C(=O)N[C@@H](CCC(N)=O)C(=O)N[C@@H](CC(N)=O)C(=O)N[C@@H](Cc1ccc(O)cc1)C(=O)N[C@H](C(=O)N[C@@H](CCCCN)C(=O)N[C@@H](C)C(=O)N[C@@H](CC(C)C)C(=O)N[C@@H](C)C(=O)NCC(=O)N[C@@H](CCCCN)C(=O)N[C@@H](CC(C)C)C(=O)N[C@H](C(N)=O)C(C)C)[C@@H](C)O)[C@@H](C)CC` (Palmitoyl-KYIHQNYTKALAGKLV-NH2) the “degradability by cells (in words)” value (HeLa cells) was “degraded incompletely” and the “formation” value [1] was “very large aggregates”.
In the case of `CCCCCCCCCCCCCCCC(=O)OC[C@H](N)C(=O)N[C@H](C(=O)N[C@H](C(=O)N[C@H](C(=O)N[C@@H](C)C(=O)N[C@@H](C)C(=O)N[C@@H](C)C(=O)N[C@@H](CCCCN)C(=O)N[C@@H](CCCCN)C(=O)N[C@@H](CCCCN)C(N)=O)C(C)C)C(C)C)C(C)C` (H-S(Palmitoyl)VVVAAAKKK-NH2), the “degradability by cells (in words)” value (HeLa cells) is reported as “degraded well”.
In the case of `CCCCCCCCCCCCCCCC(=O)N[C@@H](CCCNC(=N)N)C(=O)N[C@@H](CCCNC(=N)N)C(=O)N[C@@H](Cc1c[nH]c2ccccc12)C(=O)N[C@@H](CCC(N)=O)C(=O)N[C@@H](Cc1c[nH]c2ccccc12)C(=O)N[C@@H](CCCNC(=N)N)C(N)=O` [C16-RRWQWR-NH2] (Palmitoyl-RRWQWR-NH2), the “formation” value [1] is reported as “not forming µm-sized aggregates and forming too few/less aggregates, respectively; also recorded: cannot form µm‐sized aggregates” and the “infectivity enhancement of HIV-1 (in words)” value [2] is reported as “Inactive”.
In the case of NFYLQVNKINK-NH2, the “degradability by cells (in words)” value (HeLa cells) is reported as “no good degradability”.
For `CCCCCCCCCCCCCCCC(=O)N[C@@H](C)C(=O)N[C@@H](C)C(=O)N[C@H](C(=O)N[C@H](C(=O)N[C@@H](Cc1c[nH]cn1)C(=O)N[C@@H](Cc1c[nH]cn1)C(=O)N[C@@H](CCCCN)C(N)=O)C(C)C)C(C)C` [C16-AAVVHHK-NH2] (Palmitoyl-AAVVHHK-NH2), the “degradability by cells (in words)” value (HeLa cells) was “degraded incompletely” and the “formation” value [1] was “very large aggregates”.
For `CCCCCCCCCCCCCCCC(=O)N[C@@H](C)C(=O)N[C@H](C(=O)N[C@@H](C)C(=O)N[C@@H](CCCCN)C(=O)N[C@@H](CCCCN)C(=O)N[C@@H](CCCCN)C(N)=O)C(C)C` [C16-AVAKKK-NH2] (Palmitoyl-AVAKKK-NH2), the “formation” value [1] was “not forming µm-sized aggregates and forming too few/less aggregates, respectively”.
In the case of “C16‐thioester‐CVVVAAAKKK‐NH2 [PA1 variant with thioester linker]”, the “degradability (percentual degradation by aggregate number)” value (HeLa cells) is reported as 87% and the “formation” value [1] is reported as “small, well distributed aggregates”.
With `CCCCCCCCCCCCCCCC(=O)N[C@@H](CC(N)=O)C(=O)N[C@@H](Cc1ccccc1)C(=O)N[C@@H](Cc1ccc(O)cc1)C(=O)N[C@@H](CC(C)C)C(=O)N[C@@H](CCC(N)=O)C(=O)N[C@H](C(=O)N[C@@H](CC(N)=O)C(=O)N[C@@H](CCCCN)C(=O)N[C@H](C(=O)N[C@@H](CC(N)=O)C(=O)N[C@@H](CCCCN)C(N)=O)[C@@H](C)CC)C(C)C` (Palmitoyl-NFYLQVNKINK-NH2) the “degradability by cells (in words)” value (HeLa cells) was “degraded incompletely” and the “formation” value [1] was “very large aggregates”.
For `CCCCCCCCCCCCCCCC(=O)N[C@@H](CC(C)C)C(=O)N[C@@H](CC(N)=O)C(=O)NCC(=O)NCC(=O)N[C@H](C(=O)N[C@@H](CCCCN)C(=O)N[C@@H](CCCCN)C(N)=O)C(C)C` [C16-LNGGVKK-NH2] (Palmitoyl-LNGGVKK-NH2), the “degradability (percentual degradation by aggregate number)” value (HeLa cells) was 48%.
With “C16-AQAKAK [library peptide amphiphile, palmitic acid at the N-terminus]” the “degradability by cells (in words)” value (HeLa cells) was “degraded incompletely” and the “formation” value [1] was “very large aggregates”.
